Reference: ChEMBL document CHEMBL1131546, “Synthesis and pharmacological evaluation of benzofuran-acetamides as "antineophobic" mitochondrial DBI receptor complex ligands” (Bioorg Med Chem Lett, 1998)

Experiments:
[1] = Binding affinity was determined as the ability to displace [3H]4''CD from the (mDRC) mitochondrial DBI receptor complex using primary cultures of glial cells; set-up: species or system Rattus norvegicus
[2] = system: Rattus norvegicus; assay: Tested for antineophobic activity in rats using elevated maze test upon 70 umol/kg peroral administration, expressed as number of entries into the open arms after 45 min of administration; assay type: functional
[3] = system: Rattus norvegicus; assay: Tested for antineophobic activity in rats using elevated maze test upon 70 umol/kg peroral administration, expressed as percent of time spent into open arms after 45 min of administration; assay type: functional
[4] = system: Rattus norvegicus; assay: Tested for antineophobic activity in rats using elevated maze test upon 53 umol/kg peroral administration, expressed as number of entries into the open arms after 45 min of administration; assay type: functional
[5] = system: Rattus norvegicus; assay: Tested for antineophobic activity in rats using elevated maze test upon 53 umol/kg peroral administration, expressed as percent of time spent into open arms after 45 min of administration; assay type: functional
[6] = system: Rattus norvegicus; assay: Tested for antineophobic activity in rats using elevated maze test upon 59 umol/kg peroral administration, expressed as number of entries into the open arms after 45 min of administration; assay type: functional
[7] = system: Rattus norvegicus; assay: Tested for antineophobic activity in rats using elevated maze test upon 59 umol/kg po administration, expressed as percent of time spent into open arms after 45 min of administration; assay type: functional
[8] = system: Rattus norvegicus; assay: Tested for antineophobic activity in rats using elevated maze test upon 57 umol/kg peroral administration, expressed as number of entries into the open arms after 45 min of administration; assay type: functional
[9] = system: Rattus norvegicus; assay: Tested for antineophobic activity in rats using elevated maze test upon 57 umol/kg peroral administration, expressed as percent of time spent into open arms after 45 min of administration; assay type: functional
[10] = Concentration required to stimulate pregnenolone formation in the mitochondria of C6-2B glioma cells.; assay type: functional, Rattus norvegicus

SMILES: CCCCCCN(CCCCCC)C(=O)Cc1c(-c2ccccc2)oc2ccc(Cl)cc12
- Ki [1]: 0.032 µM
- No. of openarm entries [2]: 2.1
- Time [3]: 4.7%

SMILES: CCCCCCN(CCCCCC)C(=O)Cc1c(-c2ccc(F)cc2)oc2ccc(Cl)cc12
- Ki [1]: 0.032 µM
- No. of openarm entries [4]: 2.3
- Time [5]: 4.7%

SMILES: CCCCCCN(CCCCCC)C(=O)Cc1c(-c2ccccc2)oc2ccccc12
- Ki [1]: 0.014 µM
- No. of openarm entries [6]: 2.6
- Time [7]: 4.5%

SMILES: CCCCCCN(CCCCCC)C(=O)Cc1c(-c2ccc(I)cc2)oc2ccccc12
- Ki [1]: 0.08 µM

SMILES: CCCCCCN(CCCCCC)C(=O)Cc1c(-c2ccc(F)cc2)oc2ccccc12
- Ki [1]: 0.008 µM
- No. of openarm entries [8]: 2.1
- Time [9]: 5.1%

SMILES: CCCCCCN(CCCCCC)C(=O)Cc1c(-c2ccc(N)cc2)oc2ccccc12
- Ki [1]: 0.035 µM

SMILES: CCCCCCN(CCCCCC)C(=O)Cc1c(-c2ccc(F)cc2)[nH]c2ccccc12
- EC50 [10]: 0.003 µM
- Ki [1]: 0.0044 µM
- No. of openarm entries [8]: 2.1
- Time [9]: 4.5%
